In US9637451B2, “Indole compound” (ASTELLAS PHARMA INC., priority 2014, dated 2017):

Tests used:
Format in all cases: in vivo
rat = assay: Measurement test of electroencephalogram in rat (sleep-awake cycle); conditions: oral
Excerpt: After the completion of a quarantine period, the animals showing no abnormal health condition were subjected to an electroencephalogram electrode chronic implantation surgery with reference to brain atlas of Pellegrino (Plenum Press, New York (1979)), or the like. Under anesthesia with pentobarbital sodium, the rat was calibrated in a brain stereotaxic apparatus. In the frontal cortex, a monopolar silver ball electrode having a diameter of the tip of about 1 mm was placed on a hard film of the brain. Into the hippocampus, a laminated bipolar electrodes made of stainless steel was stuck. The reference electrode was screwed around the olfactory brain. Further, as for the electromyogram measurement, the lead wire was implanted in the both electrodes about 1 cm between the electrodes in the neck portion. The other end was exposed to the head portion subcutaneously. The electrodes and the lead wires were subjected to soldering with connector sockets and fixed to the skull with a dental resin or the like.
The rats were accommodated in a measurement cage under rat feeding and water supply on the morning of the day of administration, and accustomed to the measurement environment. After measuring the weight using an electronic scale balance, a lead wire and a connector socket were connected 30 minutes or more before the start of the electroencephalogram measurement, and the rat was accustomed in the measurement state under no anesthesia and no custody. The test compounds were intraperitoneally or orally administered to the rats and the electroencephalogram was measured continuously until 6 hours after the administration.
Ramelteon: solvent, 0.1 mg/kg, 1 mg/kg, and 10 mg/kg; intraperitoneal administration
Example 1: solvent, 3 mg/kg, 30 mg/kg, and 300 mg/kg; oral administration
Example 6: solvent, 10 mg/kg, 30 mg/kg, and 300 mg/kg; oral administration
The electrical signals of electroencephalogram and of electromyogram were applied to an electroencephalogram system and an electroencephalogram frequency analysis program of a personal computer was used to acquire the wave form of the electroencephalogram from the electroencephalograph system. In addition, the image signals of the electroencephalogram waveform were applied to an EEG video system and recorded on DVD-R using a DVD recorder. The behavior observation was carried out through a video camera at the same time as the electroencephalogram measurement and the images were also recorded on DVD-R using DVD recorder.
The presence or absence of abnormality in the electroencephalogram waveform in up to 6 hours from immediately after the administration, to each animal, respectively, was observed.
The analysis of a sleep-awake cycle was carried out using a sleep stage display-supporting program (MTS50061B, Japan Santec Corporation) based on the electroencephalogram waveforms acquired with an electroencephalogram frequency analysis program. Using the index of electroencephalogram, electromyogram, and behavior, the sleep steps were classified into an awake phase, a rest phase, a slow wave light sleep (S.W.L.S.) phase, a slow wave deep sleep (S.W.D.S.) phase, and a fast wave sleep (F.W.S., REM sleep) phase. Further, the rest phase, the slow wave light sleep phase, and the slow wave deep sleep phase were summed to determine a slow wave sleep (S.W.S., Non-REM sleep) phase. […] As the assessment criteria in the respective sleep steps, the criteria described in Japanese Pharmacological Journal 84, 25-89 (1984) were used.

[1] = Brain-to-plasma concentration ratio in rat after intravenous administration; conditions: brain and plasma, 15 minutes after intravenous administration
Description: At 15 minutes after intravenously administration of the test compound to the rats, the plasma and brain were collected. A 50% acetonitrile solution and an acetonitrile including internal standard material were added to the collected plasma. The collected brain was added to a 2-fold volume of PBS and homogenized. A 50% acetonitrile solution and an acetonitrile including internal standard material were added to the brain homogenate. The sample was centrifuged at 4° C. and 2150×g for 10 minutes, the supernatant was measured by LC-MS/MS, and the total concentration of the test compound in the brain (Cbrain) and the total concentration of the test compound in the plasma (Cplasma,t) were obtained. The brain-to-plasma concentrations ratio (Kp,brain) was calculated by the following equation.
(§1) The Kp,uu,CSF values and the Kp,brain values of ramelteon and some Example compounds of the present invention are shown in Table 4. Ex represents Example No. of the test compound. Unless otherwise specified, the Kp,uu,CSF was calculated using the fp values determined by an ultracentrifugation method. Further, N.T. represents Not Tested.

[2] = CSF-to-plasma unbound concentration ratio in rat after intravenous administration; conditions: CSF and plasma (unbound), iv, 15 minutes after intravenous administration, fp by ultracentrifugation method
Description: A test compound (100 μg/mL, 50% acetonitrile solution) at 1% (v/v) with respect to the amount of the plasma was added to rat plasma, and dispensed to a sample for a supernatant and a sample for the plasma. The sample for a supernatant was ultracentrifuged at 436,000×g and 37° C. for 140 minutes, and the sample for the plasma was incubated at 37° C. for 140 minutes.
After 140 minutes, the sample for a supernatant after the ultracentrifugation and the sample for the plasma were taken, and mixed with the blank plasma or the blank supernatant, respectively. Acetonitrile including an internal standard material was added to each of the samples with the removal of protein, and after the centrifugation at 2150×g and 4° C. for 10 minutes the supernatant was injected into LC-MS/MS.
The unbound fraction in the plasma was calculated by the following equation.
To the plasma of a rat was added a test compound (0.2 mM, 50% acetonitrile solution) in an amount corresponding to 1% (v/v) of the plasma amount, and 200 μL of obtained plasma sample was filled into a plasma chamber of a RED device insert. A buffer chamber was filled with 350 μL of PBS, followed by performing equilibrium dialysis by stirring in a CO2 incubator at 37° C. for 16 hours. The sample after the completion of the equilibrium dialysis was recovered and the volume of the plasma sample was measured. To the plasma sample after the completion of the equilibrium dialysis were added PBS, a 20 mM ammonium formate buffer, and acetonitrile including an internal standard material. Similarly, to the PBS sample after the completion of the equilibrium dialysis was added a blank plasma, a 20 mM ammonium formate buffer, and acetonitrile including an internal standard material. This sample was left to stand at 4° C. for 30 minutes and then centrifuged 1500×g for 10 minutes, and the supernatant was measured by LC-MS/MS. The unbound fraction in the plasma was calculated by the following equation. fp=Cf/{(Cp−Cf)(V/V0)+Cf}
At 15 minutes after intravenously administration of the test compound to the rats, the plasma and CSF were collected. A 50% acetonitrile solution and an acetonitrile including internal standard material were added to the collected plasma or CSF. After centrifuging this sample at 4° C. and 2150×g for 10 minutes, the supernatant was measured by LC-MS/MS, and the total concentration of the test compound in the plasma (Cplasma,t) and the concentration of the test compound in CSF (CCSF) were obtained. The unbound concentration in the plasma (Cplasma,u) of the test compound and the CSF-to-plasma unbound concentration ratio (Kp,uu,CSF) of the test compound was calculated by the following equation.
as §1
(Ramelteon represents the values of Kp,uu,CSF after 10 minutes after the intravenous administration. Further, the Kp,uu,CSF of Examples 37 and 38 was calculated using the fp values determined by an equilibrium dialysis method. In addition, N.D. denotes the concentration of the test compound in CSF that is no higher than the detection limit.)

Kp at 0.25 h [1]: 0.09
Kp uu at 0.25 h [2]: 0.06
SMILES: CC(=O)NCCc1c[nH]c2cc(F)c(OCCOc3ccn(C)n3)cc12 [Example 6, N-[2-(6-fluoro-5-{2-[(1-methyl-1H-pyrazol-3-yl)oxy]ethoxy}-1H-indol-3-yl)ethyl]acetamide]
occupancy in the respective sleep steps of electroencephalogram (rat; 10 mg/kg and 30 mg/kg): no change in the occupancy in the respective sleep steps of electroencephalogram could be seen
sleep action (rat; 10 mg/kg and 30 mg/kg): there was no sleep action
electroencephalogram (rat; 300 mg/kg): a variation in the electroencephalogram was observed
